Measurements taken from US5981256A, “Recombinant stratum corneum chymotryptic enzyme (SCCE)” (priority 1993, dated 1999).
Square brackets hold non-standard residues; d marks the D form. Peptide text beside a SMILES is read from it. * marks the point of attachment. Sta = CC(C)C[C@H](N)[C@@H](O)CC(=O)O; Isovaleryl = CC(C)CC(=O)*

Tests used:
[1] = target: proteinase associated with plantar stratum corneum cells (native human stratum corneum chymotryptic enzyme, SCCE) (Homo sapiens, UniProt P49862); assay: Hydrolysis of S-2586 by the proteinase associated with plantar stratum corneum cells (suspended cells); details: for Activity (%) (±SD, n = 3), hydrolysis of S-2586: pH 8, control = 100
plantar stratum corneum [2] = assay: Cell release (cell shedding) from plantar stratum corneum in vitro; type: cell-based; details: Homo sapiens, 16 hours at 37° C., mean and SD for five tissue pieces
Experimental: A method to quantify the cell shedding was then developed, which allowed studies on the effects of various parameters such as temperature, pH, and enzyme inhibitors. Cylinders of plantar stratum corneum with diameter 3 mm were prepared with a biopsy punch from flakes of tissue taken and freed from loosely attached surface cells as described above in 1.1. […] The remaining tissue was removed and placed in fresh media for continued incubation. Tubes with released cells were centrifuged for 2 min at 5000 g to collect the cells. The cell pellets were washed once with 0.5 ml of phosphate buffered saline and then treated at 60° C. for 1.5 hours with 0.6 ml of 1 M sodium hydroxide. The alkali soluble protein was quantified according to Lowry et al., 1951, and taken as a measure of the amount of released cells.

[3] = target: T1, 25 kD caseinolytic enzyme of plantar corneocytes (native stratum corneum chymotryptic enzyme, SCCE) (Homo sapiens, UniProt P49862); assay: Zymography (SDS-PAGE with co-polymerized casein) of extracts of plantar corneocytes; type: biochemical; details: pH 8
T1 construct: from tissue; host or cells: human plantar stratum corneum, dissociated corneocytes (suspended cells, SDS-extract or KCl-extract)
Experimental: C: The effect of inhibitors. sc=SDS-extract of plantar corneocytes; c=bovine chymotrypsin; t=bovine trypsin. The inhibitors were present during pretreatment with Triton X-100 and the subsequent incubation. […] Leupeptin and chymostatin were added as solutions in dimethylsulphoxide (DMSO). Buffer for pretreatment and incubation=0.1 M Tris-HCl pH 8 with final concentration of DMSO 1% (v/v). Other conditions as in A.
SDS-PAGE and Coomassie blue-staining (A) and zymography after SDS-PAGE with co-polymerized casein (B) of fractions 2, 6, and 10 from the chromatogram shown in FIG. 10. Molecular weight markers to the left.
Therefore experiments with zymography were performed. For this reason KCl extracts of corneocytes were prepared for electrophoresis according to Laemmli (Laemmli 1970) but with no reducing agent in the sample buffer and with no heating of the samples. Samples were also prepared by means of extraction of dissociated plantar corneocytes with Laemmli's sample buffer without reducing agent at room temperature. For zymography a modification of the procedure of Horie et al. (Horie et al. 1984) was adopted. Polyacrylamide gel elctrophoresis in the presence of sodium dodecyl sulphate (SDS-PAGE) was carried out according to Laemmli in 12.5% gels with 1% co-polymerized heat-denatured casein. […]

plantar stratum corneum [4] = details: cited from earlier work
[5] = tested on: desmoglein I (DG I) in plantar stratum corneum; assay: Degradation of desmoglein I (DG I) in plantar stratum corneum during cell shedding in vitro (immunoblot); type: cell-based, human; details: inhibitor 330 μM; 24 hours
Experimental: The fate of desmoglein I (DG I) during cell shedding in vitro from plantar stratum corneum was studied. Plantar stratum corneum was incubated as described above in 1.1, and still cohesive tissue was separated from dissociated cells. Cells and tissue were extracted in a buffer containing 0.1 M Tris-HCl pH 9, 9 M urea, 2% sodium dodecylsulphate, 1% mercaptoethanol, 1 ml buffer per 20 mg of tissue, for 15 hours at 37° C. The extracts were prepared for polyacrylamide gel electrophoresis in 7.5% gels in the presence of sodium dodecyl sulphate (SDS-PAGE) according to Laemmli (Laemmli, 1970), followed by electrophoretic transfer (Towbin et al., 1979) to a nitrocellulose membrane (Bio-Rad, Richmond, Calif.) which was probed with a rabbit polyclonal antiserum prepared against DG I purified from bovine muzzles (Gorbsky et al. 1985). Bound antibodies were detected with alkaline phosphatase conjugated goat anti-rabbit immunoglobulins (Bio-Rad, Richmond, Calif.) (Blake et al. 1984).
SDS-PAGE and immunoblotting was performed as described above. Densitometric scannings of the immunblots were carried out in a Shimadzu CS-9000 flying spot scanner (Shimadzu, Kyoto, Japan) with reflected light at 560 nm in the zigzag mode.

[6] = target: T2, native stratum corneum chymotryptic enzyme (SCCE), KCl-extract of dissociated plantar corneocytes (Homo sapiens, UniProt P49862); assay: Proteinase assay with chromogenic substrate S-2586, native SCCE; type: biochemical; details: S-2586 1.2 mM, pH 8.0, FIG. 9B
T2 construct: from tissue; host or cells: human plantar stratum corneum, dissociated corneocytes (suspended cells, SDS-extract or KCl-extract)
Experimental: (§1) Stock solution of MeO-Suc-Arg-Pro-Tyr-pNA (S-2586) was prepared in distilled water, of Suc-Ala-Ala-Pro-Phe-pNA (SEQ ID NO:11) (Boehringer, Mannheim, Germany) in 1-methyl-2-pyrrolidone (final concentration of solvent in incubation mixtures 4%) and of chymostatin in dimethyl sulphoxide (final concentration of solvent in incubation mixtures 1%). Cathepsin G from purulent human sputum was obtained from E. Lotti, Geneva, Switzerland. The source of SCCE was KCl-extract of dissociated plantar corneocytes prepared as described above.
(§2) Incubations were performed at 37° C. in microtiter plates. The total incubation volume was 135 μl. Each incubation mixture contained Tris-HCl pH 8.0 (final concentration 0.08 M), KCl (final concentration 0.2 M), 100 μl substrate solution, 25 μl enzyme source (appropriately diluted in 0.1 M Tris-HCl pH 8.0, 1.0 M KCl) and 10 μl inhibitor solution.
(§3) In FIG. 9, A-C, MeO-Suc-Arg-Pro-Tyr-pNA (S-2586, initial concentration 1.2 mM) was used as substrate. In D the initial concentration of both substrates was 1.2 mM.

bovine chymotrypsin = bovine chymotrypsin (Bos taurus, UniProt P00766); assay: Proteinase assay with chromogenic substrate S-2586, bovine chymotrypsin; type: biochemical; details: S-2586 1.2 mM; pH 8.0; 37° C.; FIG. 9B
Experimental: as §1, §2, §3

[7] = target: T3, human cathepsin G (from purulent human sputum) (Homo sapiens, UniProt P08311); assay: Proteinase assay with chromogenic substrate S-2586, human cathepsin G; type: biochemical; details: S-2586 1.2 mM; pH 8.0; 37° C.; FIG. 9B
T3 construct: Cathepsin G from purulent human sputum; tissue E. Lotti, Geneva, Switzerland; host or cells: purulent human sputum
T3 sequence (P08311 21-244 limits assumed): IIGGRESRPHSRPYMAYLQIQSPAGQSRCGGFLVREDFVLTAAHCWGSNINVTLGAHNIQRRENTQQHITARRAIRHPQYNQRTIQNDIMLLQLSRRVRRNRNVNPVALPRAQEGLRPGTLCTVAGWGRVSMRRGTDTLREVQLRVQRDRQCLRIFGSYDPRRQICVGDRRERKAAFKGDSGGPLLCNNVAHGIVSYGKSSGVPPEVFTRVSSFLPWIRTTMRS
Experimental: as §1, §2, §3

[8] = target: T4, recombinant human stratum corneum chymotryptic enzyme (rSCCE), SEQ ID NO:2 (Homo sapiens, UniProt P49862); assay: S-2586 hydrolysing activity of recombinant SCCE with inhibitors; type: biochemical; details: no inhibitor = 100
T4 construct: made in house; host or cells: murine C127 cells (ATCC CRL 1616), vector pS507
Experimental: as §2, §3
The experimental design was as outlined in Example 3.2.

[9] = pH 8, read-out: Activity (%) (±SD, n = 3), hydrolysis of S-2586

Sequence of proteinase associated with plantar stratum corneum cells (native human stratum corneum chymotryptic enzyme, SCCE) (P49862 30-253): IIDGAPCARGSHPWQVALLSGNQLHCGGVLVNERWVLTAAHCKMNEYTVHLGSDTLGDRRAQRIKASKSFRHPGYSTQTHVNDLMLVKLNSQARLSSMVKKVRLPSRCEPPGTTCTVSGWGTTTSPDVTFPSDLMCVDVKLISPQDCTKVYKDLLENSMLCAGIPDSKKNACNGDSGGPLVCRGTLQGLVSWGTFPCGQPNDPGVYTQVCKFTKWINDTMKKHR
T4 sequence (P49862 30-253): as above
T1 sequence (P49862 30-253): as above
T2 sequence (P49862 30-253): as above

Molecule: O=C(O)CN(CCN(CC(=O)O)CC(=O)O)CC(=O)O [EDTA]
- activity at 4200 µM [1, 9]: 109 ± 1%

Molecule: NC(=O)CI [Iodoacetamide, iodoacetamide]
- inhibition at 1000 µM (plantar stratum corneum [2]; iodoacetamide 1 × 10^-3 mol/l): 6 ± 13%

Molecule: CC(=O)N[C@@H](CC(C)C)C(=O)N[C@@H](CC(C)C)C(=O)N[C@H](C=O)CCCNC(=N)N [Leupeptin, leupeptin]
- Inhibition of caseinolytic activity (zymography) ([3]; leupeptin 160 μM): not by leupeptin
- Effect on the in vitro cell shedding (plantar stratum corneum [4]): no effect
- activity at 325 µM [1, 9]: 93 ± 3%

Molecule: O=S(=O)(F)Cc1ccccc1 [PMSF, phenylmethylsulphonyl fluoride]
- Activity (%) (±SD, n = 3), hydrolysis of S-2586 ([1]; PMSF 1 mM, preincubated 1 hour at room temperature): 8 ± 3%

Molecule: CC(C)CC(=O)N[C@H](C(=O)N[C@H](C(=O)N[C@@H](CC(C)C)[C@@H](O)CC(=O)N[C@@H](C)C(=O)N[C@@H](CC(C)C)[C@@H](O)CC(=O)O)C(C)C)C(C)C [Pepstatin, pepstatin] (Isovaleryl-VV[Sta]A[Sta]-OH)
- inhibition at 100 µM (plantar stratum corneum [2]; pepstatin 1 × 10^-4 mol/l): 8 ± 4%

Molecule: chymostatin
- Inhibition of the transformation of anti-DG I positive components from 160 kD to 95 and 80 kD [5]: inhibition
- Inhibition of caseinolytic activity (zymography) ([3]; chymostatin 40 μM): could be inhibited
- Inhibition of S-2586 hydrolysis ([6]; 37° C.): caused inhibition
- Inhibitor concentration that caused 50% inhibition, SCCE compared with chymotrypsin and cathepsin G [6]: more than three orders of magnitude higher
- Inhibition of S-2586 hydrolysis (bovine chymotrypsin): caused inhibition
- Inhibition of S-2586 hydrolysis [7]: caused inhibition
- Activity (%), S-2586 hydrolysing activity ([8]; chymostatin 0.64 μM): 74.9%
- Activity (%), S-2586 hydrolysing activity ([8]; chymostatin 2.56 μM): 33%
- Activity (%), S-2586 hydrolysing activity ([8]; chymostatin 41 μM): 1.9%
- Inhibition of the first step of cell shedding in vitro (plantar stratum corneum [4]; first step, takes place with or without EDTA): could be inhibited
- Inhibition of the second step of cell shedding in vitro (plantar stratum corneum [4]; second step, only in the presence of EDTA): could be inhibited
- Activity (%) (±SD, n = 3), hydrolysis of S-2586 ([1]; chymostatin 11 μM, 5% DMSO): 66 ± 9%
- Activity (%) (±SD, n = 3), hydrolysis of S-2586 ([1]; chymostatin 55 μM, 5% DMSO): 32 ± 0%
- Activity (%) (±SD, n = 3), hydrolysis of S-2586 ([1]; chymostatin 275 μM, 5% DMSO): 15 ± 3%
